In patent publication US20230024461A1, “METHODS FOR DUAL DNA/PROTEIN TAGGING OF OPEN CHROMATIN” (Beth Israel Deaconess Medical Center, Inc., priority 2019, published 2023):

T1: PML-RARA oncogenic fusion protein (Homo sapiens, UniProt P10276+P29590)
T1 construct: PML portion (fusion partner, human Protein PML, P29590); endogenous in cells; host or cells: NB4 acute promyelocytic leukemia cells
T1 sequence (P29590+P10276 with tags, fused parts or gaps): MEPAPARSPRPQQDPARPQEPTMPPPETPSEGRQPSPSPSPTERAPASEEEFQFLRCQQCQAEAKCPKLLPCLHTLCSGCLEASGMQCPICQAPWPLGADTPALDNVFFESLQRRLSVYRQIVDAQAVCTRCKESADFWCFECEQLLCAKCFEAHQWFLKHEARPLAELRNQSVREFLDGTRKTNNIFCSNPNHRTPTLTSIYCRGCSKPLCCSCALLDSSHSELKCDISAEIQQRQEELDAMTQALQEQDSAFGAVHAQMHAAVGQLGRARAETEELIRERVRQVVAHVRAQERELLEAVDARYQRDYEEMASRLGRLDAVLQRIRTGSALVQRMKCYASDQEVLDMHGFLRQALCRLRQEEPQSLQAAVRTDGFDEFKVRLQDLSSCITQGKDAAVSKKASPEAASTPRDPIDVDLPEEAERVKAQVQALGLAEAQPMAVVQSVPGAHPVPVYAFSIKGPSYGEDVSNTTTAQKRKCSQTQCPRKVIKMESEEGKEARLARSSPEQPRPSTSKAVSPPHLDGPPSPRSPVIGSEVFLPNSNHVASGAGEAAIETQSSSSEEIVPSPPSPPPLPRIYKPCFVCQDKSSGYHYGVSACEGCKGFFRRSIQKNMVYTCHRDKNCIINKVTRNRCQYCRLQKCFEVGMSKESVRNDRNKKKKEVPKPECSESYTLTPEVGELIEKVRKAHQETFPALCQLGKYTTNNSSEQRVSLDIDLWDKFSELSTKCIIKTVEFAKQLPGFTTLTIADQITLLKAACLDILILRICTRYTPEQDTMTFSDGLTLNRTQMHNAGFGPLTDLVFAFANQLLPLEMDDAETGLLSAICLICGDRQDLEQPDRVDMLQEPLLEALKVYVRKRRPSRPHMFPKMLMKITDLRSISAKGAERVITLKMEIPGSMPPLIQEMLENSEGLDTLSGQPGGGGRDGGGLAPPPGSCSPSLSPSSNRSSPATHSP

B1: APEX2-F: FLAG-tagged APEX2 peroxidase alone, negative control probe; amino acid SEQ ID NO: 21 (protein)
chain: MGKSYPTVSADYQDAVEKAKKKLRGFIAEKRCAPLMLRLAFHSAGTFDKGTKTGGPFGTIKHPAELAHSANNGLDIAVRLLEPLKAEFPILSYADFYQLAGVVAVEVTGGPKVPFHPGREDKPEPPPEGRLPDPTKGSDHLRDVFGKAMGLTDQDIVALSGGHTIGAAHKERSGFEGPWTSNPLIFDNSYFTELLSGEKEGLLQLPSDKALLSDPVFRPLVDKYAADEDAFFADYAEAHQKLSELGFADADYKDDDDK
modifications: FLAG tag

How the values were obtained:
[1] = target: T1, PML-RARA oncogenic fusion protein; assay: Western blotting analysis of the PML epitope; format: cell-based; conditions: NB4 cells, 48 hours ATRA versus DMSO
Procedure: Western blotting analysis. Whole cell or nuclear lysates were generated by resuspending cells or nuclei in RIPA (Boston BioProducts) supplemented with 1× cOmplete EDTA-free protease inhibitor cocktail (Roche). Lysates were incubated on ice for 30 minutes, sonicated via a Sonic Dismembrator 100 (Fisher Scientific) at setting 3 with 3-4 pulses of 15 seconds on/off on ice, and treated with benzonase for an additional 30 minutes on ice. Lysates were clarified by centrifugation (15,000×g, 20 minutes, 4° C.) and their concentrations quantified via the detergent-compatible Bradford assay (Thermo Fisher Scientific). All Western blots were run on NuPAGE 4-12% Bis-Tris protein gels (Thermo Fisher Scientific) and transferred to 0.2 μm nitrocellulose membranes (GE Healthcare). Membranes were blocked with 3% milk in PBS-T and incubated overnight with primary antibody and subsequently with secondary antibody after brief washing with PBS-T. Chemiluminescence was determined by applying ECL Western Blotting detection reagent (GE Healthcare) to membranes and imaging on an Amersham Imager 600 (GE Healthcare). Membranes were stripped with Restore PLUS Stripping Buffer (Thermo Fisher Scientific). Primary antibodies used were anti-FLAG M2 (mouse, Sigma-Aldrich, F1804, 1:2000), anti-PCNA (mouse, PC10, Santa Cruz Biotechnology sc-56, 1:1000), and anti-PML (rabbit, Bethyl A301-[MUT], 1:1000). […]

NB4 cells [2] = assay: Cell proliferation assay (CellTiter-Glo); format: cell-based, human; conditions: 1 μM ATRA, 48 hours, versus DMSO
Procedure: Cell proliferation assay. NB4 cells were seeded at a density of 5e5 cells/mL subjected to either DMSO or 1 μM ATRA. After 48 hours, 50 μL cell suspension was added to 50 μL CellTiter-Glo reagent, incubated for 10 minutes at room temperature, and assayed for luminescence with a SpectraMax iD3 plate reader.

NB4 cells [3] = assay: Granulocytic differentiation analysis (flow cytometry); format: cell-based, human; conditions: 1 μM ATRA, 48 hours, versus DMSO
Procedure: NB4 cells treated either with DMSO or 1 μM ATRA were washed with 2% fetal bovine serum prior to staining. Anti-human CD11b-PE-Cy7 antibody conjugate (Clone: ICRF44, Biolegend Catalog #301321; 1:100) and anti-human CD11c-APC antibody conjugate (Clone: B-1y6, BD Pharmingen #559877; 1:100) were incubated with samples for 20 minutes and then washed to remove excess antibody. Stained samples were analyzed on a Beckman Coulter CytoFLEX LX flow cytometer with the CytoExpert v2.3.1.22 software. Data were analyzed with FlowJo v10.0.7.

NB4 cells [4] = assay: iDAPT-MS of NB4 nuclei, ATRA versus DMSO; format: cell-based, human; conditions: TP3 probe
Procedure: DNA and protein tagging by iDAPT. All iDAPT proteomic labeling assays were performed as described below unless indicated otherwise. 2.5 μmol MEDS-A/B, 2 μmol enzyme, and 1 μmol hemin chloride per channel were incubated at room temperature for 1 hour. 1e7 cells per sample were washed (500×g, 5 minutes, 4° C.), lysed and triturated in 100 μL LB1 (10 mM Tris-HCl pH 7.5, 10 mM NaCl, 3 mM MgCl2, 1% BSA, 0.01% digitonin, 0.1% Tween-20, 0.1% NP-40, and 1× cOmplete EDTA-free protease inhibitor cocktail [Roche]) for 3 minutes, and subsequently supplemented with an additional 1 mL of LB2 (10 mM Tris-HCl pH 7.5, 10 mM NaCl, 3 mM MgCl2, 1% BSA, 0.1% Tween-20, and 1× protease inhibitor). Nuclei were pelleted (500×g, 10 minutes, 4° C.), resuspended with tagmentation reaction mixture (20% dimethylformamide, 10 mM MgCl2, 20 mM Tris-HCl pH 7.5, 33% 1×PBS, 1% BSA, 0.01% digitonin, 0.1% Tween-20, 500 μM biotin-phenol, 1× protease inhibitor, and 2 pmol enzyme equivalent of enzyme:DNA:heme complex in a total volume of 500 μL), and incubated at 37° C. for 30 minutes with agitation on a thermomixer (1,000 rpm). […] Lysates were clarified by centrifugation (15,000×g, 20 minutes, 4° C.), quantified via the detergent-compatible Bradford assay (Thermo Fisher Scientific), and subjected to either Western blotting or quantitative mass spectrometry analyses as described below. […]

[5] = Peroxidase activity assay (Amplex UltraRed/resorufin fluorescence); format: biochemical; conditions: 1 mM hydrogen peroxide, one minute
Procedure: Peroxidase activity assay. 5 pmol enzyme was incubated with 2.5 pmol hemin chloride (dissolved in DMSO, Cayman Chemical) for 1 hour at room temperature. This molar ratio was selected given reports of APEX2 maximal heme occupancy between 40-57%. Heme:protein complexes were then subjected to 50 μM Amplex UltraRed (Thermo Fisher Scientific) and 1 mM hydrogen peroxide for 1 minute at room temperature in a total volume of 100 μL with 1×PBS. Reactions were then quenched with 100 μL 2× quenching solution (10 mM Trolox, 20 mM sodium ascorbate, and 20 mM NaN3 in 1×PBS), and fluorescence intensities were measured on a SpectraMax iD3 plate reader, with excitation at 530 nm and emission at 590 nm.
Peroxidase activity assay. 5 pmol enzyme was incubated with 2.5 pmol hemin chloride (Cayman Chemical, dissolved in DMSO) for 1 hour at room temperature. This molar ratio was selected given reports of APEX2 maximal heme occupancy between 40-57%. […] Reactions were then quenched with 100 μL 2× quenching solution (10 mM Trolox, 20 mM sodium ascorbate, and 20 mM NaN3 in 1×PBS), and fluorescence intensities were measured on a SpectraMax iD3 plate reader with the SoftMax Pro v7.0.3 software, with excitation at 530 nm and emission at 590 nm.

HEK293T nuclei = assay: iDAPT protein labeling, western blot of labeled nuclear lysates; format: biochemical, human; conditions: extracted HEK293T nuclei
Procedure: DNA and protein tagging by iDAPT. All iDAPT proteomic labeling assays were performed as described below unless indicated otherwise. 2.5 μmol MEDS-A/B, 2 μmol enzyme, and 1 μmol hemin chloride per channel were incubated at room temperature for 1 hour. 1e7 cells per sample were washed (500×g, 5 minutes, 4° C.), lysed and triturated in 100 μL LB1 (10 mM Tris-HCl pH 7.5, 10 mM NaCl, 3 mM MgCl2, 1% BSA, 0.01% digitonin, 0.1% Tween-20, 0.1% NP-40, and 1× cOmplete EDTA-free protease inhibitor cocktail [Roche]) for 3 minutes, and subsequently supplemented with an additional 1 mL of LB2 (10 mM Tris-HCl pH 7.5, 10 mM NaCl, 3 mM MgCl2, 1% BSA, 0.1% Tween-20, and 1× protease inhibitor). Nuclei were pelleted (500×g, 10 minutes, 4° C.), resuspended with tagmentation reaction mixture (20% dimethylformamide, 10 mM MgCl2, 20 mM Tris-HCl pH 7.5, 33% 1×PBS, 1% BSA, 0.01% digitonin, 0.1% Tween-20, 500 μM biotin-phenol, 1× protease inhibitor, and 2 pmol enzyme equivalent of enzyme:DNA:heme complex in a total volume of 500 μL), and incubated at 37° C. for 30 minutes with agitation on a thermomixer (1,000 rpm). 5 μL of tagmentation mix was saved for quality assessment as described above for ATAC-seq/iDAPT-seq sample preparation. The remaining nuclear suspension was then washed 2× with 1×PBS supplemented with 500 μM biotin-phenol, 1% BSA, 0.1% Tween-20, and 1× protease inhibitor (3000×g, 5 minutes, 4° C.) and labeled with 1 mM hydrogen peroxide and 500 μM biotin-phenol for 1 minute in 1×PBS with 1× protease inhibitor in a volume of 500 μL. Peroxidation reactions were quenched with 500 μL 2× quenching buffer (10 mM Trolox, 20 mM sodium ascorbate, 20 mM NaN3, and 1× protease inhibitor in 1×PBS). Labeled nuclei were then pelleted, washed with 1× quenching buffer, resuspended in 500 μL RIPA containing protease inhibitors, and frozen at −80° C. Lysates were thawed on ice, sonicated via a Sonic Dismembrator 100 (Fisher Scientific, setting 3, 15 seconds, 4 pulses), and incubated on ice for 30 minutes after the addition of 1 μL benzonase (EMD Millipore). Lysates were clarified by centrifugation (15,000×g, 20 minutes, 4° C.), quantified via the detergent-compatible Bradford assay (Thermo Fisher Scientific), and subjected to either Western blotting or quantitative mass spectrometry analyses as described below. For NB4 cell analysis, an additional endogenous peroxidase blocking step was added after nuclear extraction and before tagmentation: nuclei were resuspended in 500 μL 1×PBS containing 1% BSA, 0.03% hydrogen peroxide, and 0.1% NaN3 and incubated on ice for 30 minutes. Nuclei were pelleted and washed 4× with 1×PBS/1% BSA (3000×g, 5 minutes, 4° C.). Residual hydrogen peroxide was monitored by colorimetric assessment of supernatant via Quantofix peroxides test stick (Sigma).
Western blotting analysis. Whole cell or nuclear lysates were generated by resuspending cells or nuclei in RIPA (Boston BioProducts) supplemented with 1× cOmplete EDTA-free protease inhibitor cocktail (Roche). […] Lysates were clarified by centrifugation (15,000×g, 20 minutes, 4° C.) and their concentrations quantified via the detergent-compatible Bradford assay (Thermo Fisher Scientific). […] Membranes were blocked with 3% milk in PBS-T and incubated overnight with primary antibody and subsequently with secondary antibody after brief washing with PBS-T. Chemiluminescence was determined by applying ECL Western Blotting detection reagent (GE Healthcare) to membranes and imaging on an Amersham Imager 600 (GE Healthcare). […]

Row | Molecule | effect on PML-RARA oncogenic fusion protein [1] | proliferation (cell counts) (NB4 cells [2]) | differentiation (NB4 cells [3]) | enrichment of PU.1/SPI1, CEBPB, and CEBPE on open chromatin (NB4 cells [4]) | enrichment of RARA on open chromatin (NB4 cells [4]) | peroxidase activity via resorufin fluorescence [5] | peroxidase-dependent biotin signal (HEK293T nuclei)
1 | CC1=C(/C=C/C(C)=C/C=C/C(C)=C/C(=O)O)C(C)(C)CCC1 [ATRA, All-trans retinoic acid] | degradation of the PML-RARA oncogenic fusion protein | decreased proliferation | granulocytic differentiation | positive enrichment | negative enrichment | – | –
2 | B1 | – | – | – | – | – | detected | low signal
